Assay results taken from patent US20210198277A1, “AMINE-SUBSTITUTED ARYL OR HETEROARYL COMPOUNDS” (Epizyme, Inc., priority 2016, published 2021).

molecular target: T1, EHMT2 (Homo sapiens, UniProt Q96KQ7); experiment: MDA-MB-231 H3K9me2 in-cell Western assay (EHMT2 ICW); type: cell-based; conditions: Table III; MDA-MB-231 H3K9me2 in-cell Western; read-out: EHMT2 ICW (IC50 μM)
T1 construct: host or cells: MDA-MB-231
T1 sequence (Q96KQ7 1-1210): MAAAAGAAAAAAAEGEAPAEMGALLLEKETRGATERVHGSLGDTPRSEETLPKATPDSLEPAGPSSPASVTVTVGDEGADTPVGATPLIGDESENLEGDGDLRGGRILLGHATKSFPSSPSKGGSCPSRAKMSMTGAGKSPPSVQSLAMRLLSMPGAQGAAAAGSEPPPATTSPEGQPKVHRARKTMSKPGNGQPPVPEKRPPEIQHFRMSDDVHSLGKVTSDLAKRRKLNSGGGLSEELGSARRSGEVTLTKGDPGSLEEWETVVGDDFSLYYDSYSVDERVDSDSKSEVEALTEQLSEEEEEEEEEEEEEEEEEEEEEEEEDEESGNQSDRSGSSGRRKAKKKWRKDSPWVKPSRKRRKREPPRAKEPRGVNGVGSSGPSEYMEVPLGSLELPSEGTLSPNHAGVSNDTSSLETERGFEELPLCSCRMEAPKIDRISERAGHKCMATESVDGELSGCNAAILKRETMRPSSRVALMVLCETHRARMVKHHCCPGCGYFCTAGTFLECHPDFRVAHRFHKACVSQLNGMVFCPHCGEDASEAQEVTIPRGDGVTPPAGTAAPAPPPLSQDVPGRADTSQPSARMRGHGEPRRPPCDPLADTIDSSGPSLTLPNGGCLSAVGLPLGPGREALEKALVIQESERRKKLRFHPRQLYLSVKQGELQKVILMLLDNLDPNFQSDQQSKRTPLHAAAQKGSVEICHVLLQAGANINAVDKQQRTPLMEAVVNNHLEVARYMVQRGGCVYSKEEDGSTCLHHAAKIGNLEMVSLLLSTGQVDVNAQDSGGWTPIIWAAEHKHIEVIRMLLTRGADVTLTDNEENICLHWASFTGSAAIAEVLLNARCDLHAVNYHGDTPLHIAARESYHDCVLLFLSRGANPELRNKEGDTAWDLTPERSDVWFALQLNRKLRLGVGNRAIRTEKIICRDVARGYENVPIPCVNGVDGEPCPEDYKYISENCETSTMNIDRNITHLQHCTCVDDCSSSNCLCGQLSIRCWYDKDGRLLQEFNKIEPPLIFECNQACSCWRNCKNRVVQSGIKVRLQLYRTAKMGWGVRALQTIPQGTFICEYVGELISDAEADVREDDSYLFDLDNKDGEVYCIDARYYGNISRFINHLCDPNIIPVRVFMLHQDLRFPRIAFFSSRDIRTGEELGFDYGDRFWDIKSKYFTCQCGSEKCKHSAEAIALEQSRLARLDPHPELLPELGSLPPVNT
Method in brief: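 MDA-MB-231 cells (3,000/well) seeded onto compound, kept 30 min at room temperature, then 48 h at 37 °C, 5% CO2. IC50 from triplicate wells, four-parameter fit.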

Row | Compound | IC50 [µM]
1 | CNc1ccnc(Nc2ccc(OC)c(OCc3cc(C4CC4)on3)c2)n1 [Compound 426, N^2-(3-((5-cyclopropylisoxazol-3-yl)methoxy)-4-methoxyphenyl)-N^4-methylpyrimidine-2,4-diamine] | > 10
2 | CNc1ccnc(N[C@@H]2CCC[C@H](OCCCN3CCCC3)C2)n1 [Compound 427] | > 10
3 | CCOc1ccc(Nc2nccc(NC)n2)cc1OCCCN1CCCC1 [Compound 430, N^2-(4-ethoxy-3-(3-(pyrrolidin-1-yl)propoxy)phenyl)-N^4-methylpyrimidine-2,4-diamine] | > 10
4 | CCOc1ccc(Nc2nccc(NC)n2)cc1OCC1CCN(C)C1 (centres unmarked) [Compound 431] | > 10
5 | CCOc1ccc(Nc2nc(C)cc(NC)n2)cc1OCCCN1CCCC1 [Compound 432, N^2-(4-ethoxy-3-(3-(pyrrolidin-1-yl)propoxy)phenyl)-N^4,6-dimethylpyrimidine-2,4-diamine] | > 10
6 | CNc1ccnc(Nc2ccc(OC)c(OCc3noc(C4CC4)n3)c2)n1 [Compound 433, N^2-(3-((5-cyclopropyl-1,2,4-oxadiazol-3-yl)methoxy)-4-methoxyphenyl)-N^4-methylpyrimidine-2,4-diamine] | > 10
7 | CNc1ccnc(Nc2ccc(OC)c(OCc3cn(C4CC4)nn3)c2)n1 [Compound 434, N^2-(3-((1-cyclopropyl-1H-1,2,3-triazol-4-yl)methoxy)-4-methoxyphenyl)-N^4-methylpyrimidine-2,4-diamine] | > 10
8 | CNc1cc(C)nc(Nc2ccc(OC)c(OCC3CCN(CC4CC4)CC3)c2)n1 [Compound 436, N^2-(3-((1-(cyclopropylmethyl)piperidin-4-yl)methoxy)-4-methoxyphenyl)-N^4,6-dimethylpyrimidine-2,4-diamine] | > 10
9 | CNc1ccnc(Nc2ccc(OC)c(OCCOC3CCCC3)c2)n1 [Compound 440, N^2-(3-(2-(cyclopentyloxy)ethoxy)-4-methoxyphenyl)-N^4-methylpyrimidine-2,4-diamine] | > 10
10 | CNc1cc(C)nc(Nc2ccc(OC)c(OC3CCN(CC4CC4)CC3)c2)n1 [Compound 443] | > 10
11 | COc1ccc(Nc2nc(C)cc(O)n2)cc1OCCCN1CCCC1 [Compound 447, 2-((4-methoxy-3-(3-(pyrrolidin-1-yl)propoxy)phenyl)amino)-6-methylpyrimidin-4-ol] | > 10
12 | COc1ccc(Nc2cc(C)nc(O)n2)cc1OCCCN1CCCC1 [Compound 448, 4-((4-methoxy-3-(3-(pyrrolidin-1-yl)propoxy)phenyl)amino)-6-methylpyrimidin-2-ol] | > 10
13 | CNc1cc(N2CCCC2)nc(Nc2ccc(OC)c(OCCCN3CCCC3)c2)n1 [Compound 450, N^2-(4-methoxy-3-(3-(pyrrolidin-1-yl)propoxy)phenyl)-N^4-methyl-6-(pyrrolidin-1-yl)pyrimidine-2,4-diamine] | > 10
14 | CNc1cc(C)nc(Nc2ccc(OC)c(OCC3CCCO3)c2)n1 (centres unmarked) [Compound 452, N^2-(4-methoxy-3-((tetrahydrofuran-2-yl)methoxy)phenyl)-N^4,6-dimethylpyrimidine-2,4-diamine] | > 10

Other lines, results leading:

Row | IC50 [µM] | Compound
15 | 1 to 10 | CNc1ccnc(Nc2ccc(OC)c(OCCCN3CC(OC)C3)c2)n1 [Compound 425, N^2-(4-methoxy-3-(3-(3-methoxyazetidin-1-yl)propoxy)phenyl)-N^4-methylpyrimidine-2,4-diamine]
16 | 1 to 10 | CNc1cc(CC(F)(F)F)nc(Nc2ccc(OC)c(OCCCN3CCCC3)c2)n1 [Compound 428, N^2-(4-methoxy-3-(3-(pyrrolidin-1-yl)propoxy)phenyl)-N^4-methyl-6-(2,2,2-trifluoroethyl)pyrimidine-2,4-diamine]
17 | 1 to 10 | CNc1ccnc(Nc2ccc(OC)c(OCCCN3CCC3C)c2)n1 (centres unmarked) [Compound 429, N^2-(4-methoxy-3-(3-(2-methylazetidin-1-yl)propoxy)phenyl)-N^4-methylpyrimidine-2,4-diamine]
18 | 1 to 10 | CNc1cc(C)nc(Nc2ccc(OC)c(OCC3CCN(C)CC3)c2)n1 [Compound 435, N^2-(4-methoxy-3-((1-methylpiperidin-4-yl)methoxy)phenyl)-N^4,6-dimethylpyrimidine-2,4-diamine]
19 | 1 to 10 | CNc1cc(C)nc(Nc2ccc(OC)c(OCC3CNC3)c2)n1 [Compound 437, N^2-(3-(azetidin-3-ylmethoxy)-4-methoxyphenyl)-N^4,6-dimethylpyrimidine-2,4-diamine]
20 | 1 to 10 | CNc1cc(COC)nc(Nc2ccc(OC)c(OCCCN3CCCC3)c2)n1 [Compound 441, N^2-(4-methoxy-3-(3-(pyrrolidin-1-yl)propoxy)phenyl)-6-(methoxymethyl)-N^4-methylpyrimidine-2,4-diamine]
21 | 0.1 to 1 | CNc1cc(C)nc(Nc2ccc(OC)c(OCC3CN(C)C3)c2)n1 [Compound 442, N^2-(4-methoxy-3-((1-methylazetidin-3-yl)methoxy)phenyl)-N^4,6-dimethylpyrimidine-2,4-diamine]
22 | 0.1 to 1 | CCN1CC(COc2cc(Nc3nc(C)cc(NC)n3)ccc2OC)C1 [Compound 444]
23 | 1 to 10 | CNc1cc(C)nc(Nc2ccc(OC)c(OCC3CN(CC4CC4)C3)c2)n1 [Compound 445, N^2-(3-((1-(cyclopropylmethyl)azetidin-3-yl)methoxy)-4-methoxyphenyl)-N^4,6-dimethylpyrimidine-2,4-diamine]
24 | 0.1 to 1 | CNc1cc(C)nc(Nc2ccc(OC)c(OCC3CCN(C4CCC4)C3)c2)n1 (centres unmarked) [Compound 446, N^2-(3-((1-cyclobutylpyrrolidin-3-yl)methoxy)-4-methoxyphenyl)-N^4,6-dimethylpyrimidine-2,4-diamine]
25 | 0.1 to 1 | CNc1cc(C)nc(Nc2ccc(OC)c(OCC3CCN(C4COC4)C3)c2)n1 (centres unmarked) [Compound 449, N^2-(4-methoxy-3-((1-(oxetan-3-yl)pyrrolidin-3-yl)methoxy)phenyl)-N^4,6-dimethylpyrimidine-2,4-diamine]
26 | 1 to 10 | COc1ccc(Nc2nc(C)cc(NCC3CCOCC3)n2)cc1OCC1CCN(C)C1 (centres unmarked) [Compound 451, N^2-(4-methoxy-3-((1-methylpyrrolidin-3-yl)methoxy)phenyl)-6-methyl-N^4-((tetrahydro-2H-pyran-4-yl)methyl)pyrimidine-2,4-diamine]
